Source: patent US9592243B2, “Medical devices and methods comprising an anabolic agent for treatment of an injury” (Warsaw Orthopedic, Inc., priority 2011, dated 2017)

Tested on: surgical injury (linear full-thickness incisions)
Test: Injury strength of full-thickness surgical incisions, vacuum failure pressure (BTC-2000)
Format: in vivo, male hairless guinea pigs
From the text: In a recent proof-of-concept study, male hairless guinea pigs (n=30) receive bilateral incisions as previously described by Storch, Perry, Davidson, and Ward (Surg Infect (Larchmt) 2002; 3 Suppl 1:S89-98) This reference is herein incorporated by reference. Two linear full-thickness incisions exactly 2 cm long and separated by approximately 3 cm were made on the left and right dorsolateral regions of all animals. Incisions extend through the dermis and subcutaneous tissue and panniculus carnosus muscle. After the injuries were created, 200 μL of a […] aqueous suspension (1 mg of drug, ˜2.7 mg/kg) of generic stanozolol was applied directly into the injury bed in the right flank but not left flank of n=16 animals. The injury bed on the left side of these animals received 200 μL of saline vehicle control. In the remaining fourteen animals, incisions were not treated (nothing applied control). Only the incision in the right flank was assessed for injury strength in the nothing applied control animals. All injuries were then closed with interrupted nylon sutures. On days 2, 4, and 6 (in remaining animals), animals in the stanozolol group received 100 μL (0.5 mg, ˜1.4 mg/kg) of the same stanozolol suspension in the right injury and 100 μL of saline in the left injury, carefully injected with an insulin syringe introduced lateral to the injury and directed towards the injury bed. For each time point (days 5 and 7), injury strength was tested in 7 nothing applied control guinea pigs and 8 stanozolol guinea pigs after carefully removing dressing and sutures. Injury strength was measured by applying a vacuum to the injury and recording the pressure at which the injury fails. Biomechanical testing was performed under anesthesia using the […] (SRI Technologies, Nashville). A disposable acrylic test ring was placed around the injury and secured to the skin using acrylate glue. The BTC-2000™ test chamber (2.5 cm ID) was mated to the test ring. An escalating negative pressure was applied to the injury at a rate of 10 mm Hg/second, producing a multi-axial stress on the injury. […]

C[C@]12Cc3c[nH]nc3C[C@@H]1CC[C@@H]1[C@@H]2CC[C@@]2(C)[C@H]1CC[C@]2(C)O [stanozolol]
Effect on contralateral (saline treated, left flank) injuries in stanozolol treated animals (local stanozolol in right injury only, days 5 and 7): No effect
Injury strength when exposed to pressure, compared to injuries with control or placebo (FIG. 1) (locally injected bolus dose of 1 mg initially, then 0.5 mg on days 2, 4, 6, tested on days 5 and seven): highest injury strength
Injury strength (pressure at which the injury fails) compared to nothing applied control injuries (stanozolol aqueous suspension applied locally into right flank injury, 1 mg initially then 0.5 mg on days 2, 4, 6, tested on days 5 and 7): significantly stronger
